Source: article PMC5355835 (Chemical Science, 2016)

Columns and labels:
[1] = Stability assay under reductive conditions; type: physicochemical; details: PBS buffer with 1.0 mM L-glutathione, pH 7
[2] = Stability assay in human serum; type: in vitro ADME; details: male, 37 °C
[3] = Temperature and pH stability assay in phosphate buffers; type: physicochemical; details: 50 mM phosphate buffer; for half-life at 0.1 mg/mL: phosphate buffer

Molecule `CC[C@H](C)[C@@H]1NC(=O)[C@H](Cc2ccc(O)cc2)NC(=O)[C@@H](N)CSSC[C@@H](C(=O)N2CCC[C@H]2C(=O)N[C@@H](CC(C)C)C(=O)NCC(N)=O)NC(=O)[C@H](CC(N)=O)NC(=O)[C@H](CCC(N)=O)NC1=O` [OXT, oxytocin] has a half-life at 9.9 µM [1] of 8 h, a half-life at 0.45 mM [2] of 28.8 h and a half-life ([3]; pH 2.0, 40 °C) of 14 ± 0.9 days. For the same molecule, the half-life ([3]; pH 4.5, 40 °C) was 121 ± 6.2 days, the half-life at 0.1 mg/mL ([3]; pH 2, half-life, pH 2.0, 55 °C) was 76.8 h and the half-life at 0.1 mg/mL ([3]; pH 4.5, half-life, pH 4.5, 55 °C) was 432 h. The half-life at 0.1 mg/mL ([3]; pH 7, half-life, pH 7.0, 40 °C) was 173 h, the half-life at 0.1 mg/mL ([3]; pH 7, half-life, pH 7.0, 55 °C) was 48 h and the half-life at 0.1 mg/mL ([3]; pH 9, half-life, pH 9.0, 40 °C) was 93.6 h. It also gave a half-life at 0.1 mg/mL ([3]; pH 9, half-life, pH 9.0, 55 °C) of 21.6 h.
